The text below walks through data of publication PMC4076215, “Nickel(II) Complex of Polyhydroxybenzaldehyde N4-Thiosemicarbazone Exhibits Anti-Inflammatory Activity by Inhibiting NF-κB Transactivation” (PLoS ONE, 2014).

“Also recorded” adds a separate entry of the source.

In assay [1] the test system is NF-κB p65 nuclear translocation. The experiment in a line: NF-κB p65 immunofluorescence staining, TNFα-stimulated HeLa S3. Type of assay: cell-based, human. The conditions noted are these: HeLa S3, 6.25 µg/ml pretreatment 4 h. How it is done: NF-κB Activation Kits (Thermo Scientific) were used as previously described. Cells were pretreated with compounds for 4 h before being stimulated with lipopolysaccharide (LPS) ortumour necrosis factor α (TNFα) for 1 h. Cells were then fixed and permeabilized before probing with NF-κB p65 antibody for 1 h. Staining solution (containing DyLight 488 Goat Anti-Rabbit and Hoechst dye) was then added and incubated for 1 h. The plate with stained cells was evaluated using a Cellomics ArrayScan HCS Reader (Cellomics, PA, USA). Data were captured, extracted and analyzed with ArrayScan II Data Acquisition and Data Viewer version 3.0 (Cellomics).
To examine whether complex 5 blocks the activation of NF-κB by another agonist, similar experiments were performed on HeLa S3 cells induced with TNFα. Similar to LPS-treated RAW264.7 cells, TNFα-induced translocation of NF-κB p65 in HeLa S3 cells (Figure 5A). […] TNF stimulation induced a rapid phosphorylation of IκBα in DMSO treated cells (within 5 minutes).
Figure 5 Complex 5 blocks TNFα-induced NF-κB nuclear translocation. Complex 5 inhibits TNFα -induced NF-B nuclear translocation. (A) NF-κB activation assay on TNFα treated HeLa S3 cells. Staining of Hoechst (nucleus) and NF-κB in HeLa S3 cells. […] Western blot signal intensities were quantified using ImageJ software. […]

In assay [2] the test system is carrageenan-induced paw edema. Put plainly: Carrageenan-induced paw edema mouse model. In kind it is in vivo, C57BL/6 mice. Particulars: for Paw size: 1 h after carrageenan, control 7.3±0.8 mm. How it is done: Male C57BL/6 mice at age 8–12 weeks old were from Jackson Laboratories, USA. Mice were administrated intraperitoneally (i.p.) with two different doses of complex 5 (2.5 mg/kg and 5 mg/kg). Negative control groups were i.p. injected with 200 µl of vehicle (50% v/v ethanol). A standard drug 2 mg/kg dexamethasone (Sigma) was included in the study. After 1 h, paw edema was induced by injecting 50 µl of 1% carrageenan (Sigma) through the plantar tissue at the right hind paw of each mouse. The thickness of right paw of each mouse was measured at 1, 3 and 5 h after carrageenan was administered. Four animals per group were tested (n = 4). Quantification of right hind paw thickness were analyzed for statistical significance using Student's t-test. Animals were housed in individually ventilated cages in specific pathogen free facility, Animal Experimental Unit, University of Malaya. All efforts were made to minimize animal suffering and the number of animals used. At the end of the experiment, mice were euthanized by CO2 asphyxiation. Animal work was approved by the Faculty of Medicine Animal Care and Use Committee (FOMIACUC) at University of Malaya and reported according to ARRIVE guidelines.
To test the in vivo inhibitory effect of complex 5 on inflammation, we administrated two doses of complex 5 (2.5 mg/kg and 5.0 mg/kg) into C57BL/6 wild type mice through i.p. injection. For a positive control, we performed i.p. injection of 2.0 mg/kg dexamethasone into the mice. After 1 h, paw edema in the mice was induced by injecting 1% carrageenan to the right hind paw. The paw sizes were measured at 1, 3 and 5 h after edema induction. The edema formation at the mice paw was due to inflammatory response causing the accumulation of histamine, serotonin, prostaglandin and other secreted inflammatory mediators.
Male C57BL/6 mice at age of 8-12 weeks old were non-injected or injected i.p. with 2.5 mg/kg or 5.0 mg/kg complex 5, whereas for positive controls, mice were injected i.p. with 2.0 mg/kg dexamethasone. After 1 h, acute inflammation was induced in the right hind paw of each mice by injecting 50 µl of carrageenan. The size of the paw were measured after (A) 1 h or, (B) 1, 3 and 5 h post carrageenan injection. Shown were mean ±SD (n = 4). Statistical analysis was performed with Student's t-test.
In general terms: In the carrageenan paw model, swelling and tenderness develop within hours.

The test system of the next assay is RAW264.7 cells. Put plainly: Cell proliferation (MTT) assay, RAW264.7. Particulars: RAW264.7 cells, 48 h treatment.
Another assay in a line: ORAC antioxidant assay. Type of assay: physicochemical. How it is done: ORAC assay was performed based on reported procedures with slight modifications. Chemicals used such as fluorescein sodium salt, AAPH (2,2′-Azobis(2-methylpropionamidine) dihydrochloride), quercetin dehydrate and trolox ((±)-6-Hydroxy-2,5,7,8-tetramethylchromane-2-carboxylic acid) were purchased from Sigma-Aldrich. Compounds were diluted to a final concentration of 100 µg/ml, with total reaction volume of 200 µl. The assay was performed in a 96-well black microplate, with 25 µl of samples, standard (trolox), blank (solvent/PBS) or positive control (quercetin). Subsequently, 150 µl of working fluorescein solution was added to each well. The plate was incubated at 37°C for at least 5 min. Then, 25 µl of AAPH working solution was then added to the wells to make a total volume of 200 µl. […] Data were collected every 2 min for a duration of 2 h, and were analyzed by calculating the differences of area under fluorescence decay curve (AUC) of samples and blank. The values were expressed as Trolox equivalent (TE).
ROS may amplify inflammatory responses via up-regulation or activation of certain genes/transcription factors, such as NF-κB. […] Therefore, we conducted ORAC assays to investigate the antioxidant capacity of complex 5. The ORAC assay uses peroxyl radical as pro-oxidant and the antioxidant activity is quantified via area under curve (AUC). We included quercetin, a known antioxidant, as a positive control.

Method for RAW264.7 cells: A total number of 1.0×10^4 cells per well were seeded into a 96-well plate and incubated overnight at 37°C in 5% CO2. The next day, the cells were treated with a two-fold serial dilution of compounds. MTT assays were performed as described [27]. After 48 h, (4,5-dimethylthiazol-2-yl-2,5-diphenyltetrazoliumbromide) was added at 2 mg/ml. After 3 h of incubation at 37°C in 5% CO2, DMSO was added to dissolve the formazan crystals. The plates were then read in Chameleon multitechnology microplate reader (Hidex, Turku, Finland) at 570 nm absorbance. The ratio of the absorbance of treated cells to the absorbance of DMSO-treated control cells was determined as percentage cell viability.
To examine whether synthesized Ni(II) thiosemicarbazone ligands or Ni(II)-phosphine complexes were cytotoxic, we treated RAW264.7 (leukemic monocyte macrophage) and HeLa S3 (cervical adenocarcinoma) cells with these compounds for 48 h. The cell viability was determined with MTT assays [33].

Regarding `NC1=[S+][Ni-2]2([P+](c3ccccc3)(c3ccccc3)c3ccccc3)[O]c3c(O)cccc3C=[N+]2N1.[Cl-]` [complex 5, {2-[(2-Carbamothiolylhydrazin-1-ylidene-[kappa]2N1,S)methyl]-6-hydroxyphenolato-[kappa]O1}(triphenylphosphine-[kappa]P)nickel(II) chloride], the “Inhibition of TNFα-induced NF-κB nuclear translocation” value in assay [1] is given as “significantly blocked; also recorded: sufficient to prevent”. Besides, in assay [2] (2.5 mg/kg i.p.), the Paw size is 5.8±0.4 mm. Besides, in assay [2] (5.0 mg/kg i.p.), the Paw edema formation result was “obvious reduction; also recorded: effectively reduced” and the Paw size was found to be 5.0±0.2 mm. For the same molecule, in assay [2] (3 and 5 h post carrageenan), the “Paw edema compared to untreated mice” value was “further reduced”. In addition, the “IC50 (cell viability, MTT)” value with RAW264.7 cells was 28.63 ± 2.24 µg/mL. Besides, in “ORAC antioxidant assay”, the “Antioxidant activity compared to quercetin” value is recorded as “low antioxidant activity” and the “Antioxidant capacity, Trolox equivalent” value stood at 10.56±0.17 µM TE per 100 µM.
